# Tests used:
# [1] = test system: colorectal tumorigenesis; test: AOM/DSS-induced colorectal cancer model in conventional C57BL/6 mice; format: in vivo
# From the text: (§1) For each cycle, mice were allowed free access to drinking water supplemented with 2.0% DSS for 5 days, followed by 16 days of regular water. Drinking water was supplemented with antibiotics cocktail (0.2 g/L of ampicillin, neomycin and metronidazole and 0.1 g/L of vancomycin) for two weeks, every other two weeks, till the end of experiment, to deplete the gut microbiota. […] At day 80 for AOM/DSS model and day 84 for APC^min/+ model, mice were harvested. The intestines were longitudinally opened along the mesenteric margin and flushed with ice-cold phosphate-buffered saline (PBS). Solid neoplastic lesions were carefully counted for tumor number and measured for tumor size (average diameter, (major diameter+minor diameter)/2) and tumor load (sum of average diameters of all tumors). The intestinal tissues were fixed in 10% neutral buffered formalin and embedded in paraffin. Sections (4 μm) were stained with hematoxylin and eosin for histological examination by a pathologist (A/Professor Anthony W H Chan) who was blind to the experimental design. The remaining tissues were snap-frozen in liquid nitrogen, and stored at −80° C. until use. All procedures adhered to the guidelines approved by the Animal Experimentation Ethics Committee of the Chinese University of Hong Kong.
# [2] = test system: PGE2; test: Plasma PGE2 by ELISA; format: in vivo, mice
# Protocol: The plasma levels of PGE2 were measured using Multispecies Competitive ELISA Kit (Thermo Fisher Scientific). Briefly, 500 μL ice-cold methanol was added to 150 μL of plasma sample with 28 μM indomethacin and mixed vigorously. After acidification by 2M HCl to pH 3.5, the aqueous layer was extracted with 500 μL chloroform and centrifuged at 2000 g for 20 min^25. The […] organic phase was discarded, and the remaining aqueous phase was evaporated to dryness under nitrogen, before measurement by the kit.
# [3] = reference 24, cited from earlier work
# [4] = Plasma aspirin/salicylic acid level in APCmin/+ mice with or without antibiotics (UHPLC-Q-TOF/MS); format: in vivo; conditions: for plasma level of aspirin: antibiotics-treated APCmin/+ mice relative to mice with intact microbiota
# Protocol: (§2) The levels of aspirin from plasma, gut luminal contents and culture medium was determined by ultra-high-performance liquid chromatography-quadrupole time-of-flight mass spectrometry (UHPLC-Q-TOF/MS). The detection sample was mixed in 5 μL 4-C1-phenylalanine (0.39 mg/mL, internal standard). Aspirin and salicylic acid were extracted twice by 400 μL cold methanol. Supernatants were dried under nitrogen stream and detected by UHPLC (1290 Infinity LC, Agilent, Santa Clara, Calif.) and MS (6550 Q-TOF/MS, Agilent, CA).
# (§3) The primary metabolite of aspirin, salicylic acid, in culture medium was examined by Trinder's method^26. Equal number of fecal bacteria (estimated by optical density (OD) 600) from APC^min/+ mice with and without antibiotic treatment were inoculated into the brain heart infusion (BHI) medium (Thermo Fisher Scientific) containing aspirin (10 mM). After 2-hour co-incubation at 37° C., the level of salicylic acid in medium was measured by Trinder's method^26. Briefly, the supernatant of medium was mixed with a solution containing 40 g ferric nitrate, 40 g mercuric chloride and 120 mL 1N HCL in 1 L ddH2O at 1:5 ratio. Salicylic acid was quantified by absorbance value at 540 nm. The plasma and luminal content levels of salicylic acid were evaluated by UHPLC-Q-TOF/MS.
# To determine the reason for the enhanced CRC inhibitory effect of aspirin in microbiota-depleted mice, the plasma level of aspirin was evaluated in mice with or without intact microbiota. Antibiotics cocktail was administered to APC^min/+ mice for five days followed by oral administration of aspirin (10 mg/kg) (FIG. 4A), and subsequent UHPLC-Q-TOF/MS analysis (FIG. 4B). […] To confirm this observation, the level of salicylic acid, the primary metabolite of aspirin, was evaluated in the plasma. The plasma level of salicylic acid increased at 1 h post aspirin administration in microbiota-depleted mice compared to mice with intact microbiota (FIG. 9). These findings indicate that the gut microbiota is associated with the reduction of aspirin bioavailability.
# [5] = test system: gut microbiota; test: Shotgun metagenomics of feces from aspirin-treated versus control APCmin/+ mice; format: in vivo
# Protocol: Whole-genome shotgun metagenomic sequencing of fecal samples from mice were performed on Illumina HiSeq 2000 (Illumina, San Diego, Calif.) as previously described^27. […] Mammalian genomes (hg38, felCat8, canFam3, mm10, rn6, susScr3, galGal4 and bosTau8; UCSC Genome Browser) and 6877 bacterial plasmids (NCBI RefSeq database accessed on May 12, 2016), 2116 complete plastomes (NCBI RefSeq database accessed on May 12, 2016) and 6093 UNiVec sequences (NCBI RefSeq database accessed on May 12, 2016), which are potential habitat-/laboratory-associated or extra-chromosomal sequence contaminants, were removed after alignment using Bowtie2 v_2.2.9 with “very-sensitive” default settings. Taxonomy was assigned to metagenomic reads using k-mer-based algorithms implemented in Kraken taxonomic annotation pipeline with each k-mer in a read mapped to the lowest common ancestor of all reference genomes with exact k-mer matches. Each query was thereafter classified to a taxon with the highest total hits of k-mer matched by pruning the general taxonomic trees affiliated with mapped genomes. The final metagenomic read counts were rarified to the sample with the lowest value and further normalized by cumulative sum scaling. In-house fecal metagenomic sequences were examined for the abundance of candidate bacteria identified from mouse fecal samples^27,28.
# [6] = test system: colorectal tumorigenesis; test: APCmin/+ spontaneous colorectal cancer mouse model; format: in vivo; conditions: aspirin 400 mg/L drinking water; microbiota-depleted APCmin/+ mice
# Protocol: as §1, with “Drinking” for “For each cycle, mice were allowed free access to drinking water supplemented with 2.0% DSS for 5 days, followed by 16 days of regular water. Drinking”, “microbiota. Aspirin (Byer, Leverkusen, Germany), freshly prepared (400 mg/L) in drinking water twice a week, was continuously given to mice through the entire experiment.” for “microbiota.”
# [7] = test system: colorectal tumorigenesis; test: AOM/DSS-treated germ-free and conventionalized germ-free Kunming mice; format: in vivo
# Protocol: Germ-free wild-type Kunming mice (10 weeks old) in male gender were treated with AOM and DSS to induce intestinal neoplasia. The treatment regimens of AOM, DSS and aspirin were the same as described for conventional mice. In a separate experiment, to determine the direct effects of microbiota on chemoprevention, germ-free mice were conventionalized after their cages were placed out of germ-free environment at 10 weeks old prior to treatment. The remaining procedures performed were the same as described for conventional mice. Germ-free mice were bred at the Department of Laboratory Animal Science, The Third Military Medical University, Chongqing, China. The germ-free animal experiments were approved by the Animal Experimentation Ethics Committee of The Third Military Medical University.
# [8] = test system: COX-2; test: COX-2 mRNA in distal colonic tissues by qRT-PCR; format: in vivo, mice; conditions: for tissue COX-2 expression: compared to control mice
# Protocol: Total RNA in distal colonic tissues was extracted using TRIzol reagent (Thermo Fisher Scientific). The quality and quantity of RNA were determined by NanoDrop2000 spectrophotometer. Complementary DNA (cDNA) was synthesized from 1000 ng of the extracted RNA by reverse transcription (PrimeScript RT Reagent Kit with gDNA Eraser) (Takara, Japan) and analyzed by qPCR with normalization by GAPDH. The primers used were: […]
# [9] = Plasma and luminal aspirin/salicylic acid level in L. sphaericus-monocolonized germ-free mice; format: in vivo; conditions: for plasma level of aspirin: L. sphaericus-monocolonized germ-free mice compared with control germ-free mice
# Protocol: as §2, §3
# In order to determine whether L. sphaericus can degrade aspirin and impacts its bioavailability in vivo, germ-free mice were gavaged with L. sphaericus (1×10^8 CFU) once/day for three days, followed by oral administration of aspirin (10 mg/kg) (FIG. 6C). […] Taken together, these findings from in vitro and in vivo experiments indicate that L. sphaericus causes aspirin degradation in the gut, thereby reducing aspirin bioavailability.
# [10] = test system: fecal bacteria; format: in vitro ADME, mice
# Protocol: as §3, with “The levels of aspirin from plasma, gut luminal contents and culture medium was determined by ultra-high-performance liquid chromatography-quadrupole time-of-flight mass spectrometry (UHPLC-Q-TOF/MS). The detection sample was mixed in 5 μL 4-[…] (0.39 mg/mL, internal standard). Aspirin and salicylic acid were extracted twice by 400 μL cold methanol. Supernatants were dried under nitrogen stream and detected by UHPLC (1290 Infinity LC, Agilent, Santa Clara, Calif.) and MS (6550 Q-TOF/MS, Agilent, CA). The primary” for “The primary”, “by UHPLC-Q-TOF/MS. Mouse feces were mixed with cooked meat (CM) medium (Thermo Fisher Scientific). […]” for “by UHPLC-Q-TOF/MS.”
# [11] = test system: Lysinibacillus sphaericus; test: In vitro incubation of L. sphaericus with antibiotics (cell growth); format: cell-based; conditions: in vitro incubation with single antibiotics of the cocktail
# [12] = aspirin 400 mg/L drinking water, microbiota-depleted (antibiotics cocktail) AOM/DSS-treated mice, vs no aspirin
# [13] = high-dose aspirin 1200 mg/L, conventional AOM/DSS-treated mice gavaged with L. sphaericus twice/week
# [14] = higher dose aspirin 1200 mg/L in drinking water, microbiota-intact AOM/DSS-treated mice, vs mice without aspirin
# [15] = AOM/DSS mice with depleted microbiota
# [16] = APCmin/+ mice with depleted microbiota
# [17] = 0.5 h post oral aspirin 10 mg/kg
# [18] = aspirin-treated APCmin/+ mice compared to control
# [19] = AOM/DSS-treated conventionalized germ-free mice
# [20] = AOM/DSS-treated germ-free mice, relative to untreated germ-free control mice
smiles,measurement,setting,value
"CC(=O)Oc1ccccc1C(=O)O [aspirin, acetylsalicylic acid]",colorectal tumor load,[1]; [12],significant reductions
same,colorectal tumor number,[1]; [12],significant reductions
same,preventive effect on tumor load,[1]; [13],marginally
same,preventive effect on tumor number,[1]; [13],impaired the preventive effect
same,colorectal tumor load,[1]; [14],significantly reduced
same,colorectal tumor number,[1]; [14],significantly reduced
same,plasma PGE2 level,[2]; [15],significantly decreased
same,plasma PGE2 level,[2]; AOM/DSS-treated germ-free mice,reductions
same,plasma PGE2 level,[2]; [16],significantly decreased
same,plasma PGE2 level,"[2]; conventional mice with intact microbiota, compared to control mice",no differences
same,plasma PGE2 level,"[2]; conventionalized germ-free mice, compared to control mice",no differences
same,"level in circulation, effect of gut microbiota",[3]; after oral administration,reducing its level in circulation
same,difference in blood levels of aspirin in rats with and without microbial depletion,[3]; intravenous administration,abolished by intravenous administration
same,"antithrombotic activity, effect of gut microbiota",[3]; oral administration,reduced the antithrombotic activity
same,plasma level of aspirin,[4]; [17],significantly increased
same,plasma level of aspirin,[4]; 1 h post oral aspirin 10 mg/kg,significantly increased
same,plasma level of salicylic acid (primary metabolite of aspirin),"[4]; 1 h post oral aspirin 10 mg/kg, microbiota-depleted mice compared to mice with intact microbiota",increased
same,association between microbial community composition and aspirin treatment (multivariate component analysis),[5]; antibiotics-naive aspirin-treated APCmin/+ vs control mice,significant associations
same,Bifidobacterium and Lactobacillus genera (linear discriminant analysis effect size),[5]; [18],enrichment
same,Clostridium and Clostridiodes genera,[5]; [18],depleted
same,"probiotic species B. pseudolongum, B. breve, B. animalis, L. reuteri, L. gasseri, L. johnsonii",[5]; [18],enriched
same,colorectal tumor load,[6],significantly decreased
same,colorectal tumor number,[6],significantly decreased
same,suppressive effect on tumorigenesis (tumor load),[7]; [19],impaired by conventionalization
same,suppressive effect on tumorigenesis (tumor number),[7]; [19],impaired by conventionalization
same,colorectal tumor load,[7]; [20],significantly reduced
same,colorectal tumor number,[7]; [20],significantly reduced
same,colonic COX-2 mRNA level,[8]; [15],significantly decreased
same,COX-2 expression,[8]; AOM/DSS-treated germ-free mice,reductions
same,colonic COX-2 mRNA level,[8]; [16],significantly decreased
same,tissue COX-2 expression,[8]; conventional mice with intact microbiota,no differences
same,tissue COX-2 expression,[8]; conventionalized germ-free mice,no differences
same,plasma level of aspirin,[9]; [17],significantly reduced
same,plasma level of aspirin,[9]; 1 h post oral aspirin 10 mg/kg,significantly reduced
same,level of salicylic acid in the colon luminal content,"[9]; 3 h post oral aspirin 10 mg/kg, L. sphaericus-monocolonized mice compared to control germ-free mice",significantly reduced
same,plasma level of salicylic acid,"[9]; 3 h post oral aspirin 10 mg/kg, L. sphaericus-monocolonized mice vs control germ-free mice",significantly lowered
same,salicylic acid level in the medium (UHPLC-Q-TOF/MS),[10],not significantly different
CC1(C)S[C@@H]2[C@H](NC(=O)[C@H](N)c3ccccc3)C(=O)N2[C@H]1C(=O)O [ampicillin],growth of L. sphaericus,[11],inhibiting the growth
